Laboratory results as given in patent US9895303B2, “Peptide, method and composition for stimulating melanogenesis” (Renorigin Innovation Institute Co., Ltd., priority 2016, dated 2018).

Columns and labels:
Type in all cases: cell-based, murine
B16F10 melanoma cells = assay: Visual pigmentation of B16F10 cells and culture medium; settings: 10-50 μg/ml, 5 days, medium change at day 3
Description: B16F10 melanoma cells were treated with 10-50 μg/ml peptide of SEQ ID NO: 1 (“Lf B-17-34”) for 5 days with a medium change at day 3. The cells and medium were recovered in test tubes. Kojic acid is used as negative control in the cellular study due to known inhibitory effects on tyrosinase activity. IBMX is used as positive control in the cellular study due to known elevator of cellular cAMP level, to stimulate melanogenesis.
(§1) B16F10 murine melanoma cells were cultured in phenol red-free DMEM with 10% fetal bovine serum and penicillin/streptomycin (100 IU/50 […]) in a humidified atmosphere containing 5% CO2 in air at 37° C.

Tyrosinase [1] = assay: Tyrosinase assay (cell lysate, L-DOPA); settings: B16F10 cells, 10-50 μg/ml, 5 days
Description: as §1
Tyrosinase is the rate limiting enzyme in the melanogenic pathway. Its measurement provides a highly specific and sensitive indication of degree of induction of melanogenesis. Tyrosinase enzyme activity of cultured B16F10 cells were measured according to the method of (Bellei et al., J Biol Chem 285, 7288-7299, 2010) with a slight modification. Briefly, B16F10 cells were seeded in 6-well plate (2×10^4 cells/well) and incubated overnight to allow cells to adhere. After treating with various test samples in an incubator for 5 days, cells were washed with PBS and then harvested using trypsin. At the end point, the cells were solubilized with phosphate buffer (pH 6.8) containing 1% Triton X-100. The cells were then disrupted by freezing and thawing, and the lysates were clarified by centrifugation at 10,000×g for 10 min. After protein quantification and adjustment of protein concentrations with lysis buffer, 100 μl of each lysate (each containing the same amount of protein) were aliquoted into the wells of a 96-well plate, and 100 μl of 5 mM L-DOPA were then added to each well. The absorbance was measured spectrophotometrically at 475 nm following a […] incubation period at 37° C. […]

B16F10 cells = assay: Melanin content assay; settings: 10-50 μg/ml, 5 days
Description: as §1
Melanin contents of cultured B16F10 cells were measured according to the method (Lee et al., J Invest Dermatol 124, 405-411, 2005) with a slight modification. Briefly, B16F10 cells were seeded in 6-well plate (2×10^4 cells/well) and incubated overnight to allow cells to adhere. After treating with various test samples in an incubator for 5 days, washed, trypsinized and counted before pelleting. Melanin per cell was quantified after boiling in 1 M NaOH for 1 hour and melanin content in each sample was read from a calibration curve against synthetic eumelanin at 400 nm and converted to means±SE melanin pg/cell from 3 independent experiments.

Tyrosinase [2] = assay: DOPA staining; settings: B16F10 cells, 10-50 μg/ml, 4 days
Description: as §1
DOPA staining was also performed to measure tyrosinase enzyme activity. B16F10 cells were seeded in 6-well plate (2×10^4 cells/well) and incubated overnight to allow cells to adhere. After treating with various test samples in an incubator for 4 days, cells were washed with PBS, fixation with 2% paraformaldehyde and washing with PBS a further three times, the cells were incubated with 0.1% DOPA (dissolved in 0.1 M PBS) at 37° C. for 5 hour, and observed using light microscopy (Wang et al., Exp Ther Med 6, 967-972, 2013).

FKCRRWQWRMKKLGAPSI (listed as Bos taurus) [Lf B-17-34]
pigmentation in cells and in medium (B16F10 melanoma cells): hyper pigmentation in cells as in medium to a similar extent | tyrosinase activity (Tyrosinase [1]): significantly increased tyrosinase activity | melanin synthesis (melanin content in cells, melanin secretion in medium) (B16F10 cells): significantly increased melanin synthesis in a concentration-dependent manner | DOPA staining (Tyrosinase [2]): strong DOPA staining
